From US9169254B2, “Spiroimidazolone derivative” (Chugai Seiyaku Kabushiki Kaisha, priority 2009, dated 2015)

Target: T1, human PTH1 receptor (Homo sapiens, UniProt Q03431)
T1 sequence (Q03431 27-593): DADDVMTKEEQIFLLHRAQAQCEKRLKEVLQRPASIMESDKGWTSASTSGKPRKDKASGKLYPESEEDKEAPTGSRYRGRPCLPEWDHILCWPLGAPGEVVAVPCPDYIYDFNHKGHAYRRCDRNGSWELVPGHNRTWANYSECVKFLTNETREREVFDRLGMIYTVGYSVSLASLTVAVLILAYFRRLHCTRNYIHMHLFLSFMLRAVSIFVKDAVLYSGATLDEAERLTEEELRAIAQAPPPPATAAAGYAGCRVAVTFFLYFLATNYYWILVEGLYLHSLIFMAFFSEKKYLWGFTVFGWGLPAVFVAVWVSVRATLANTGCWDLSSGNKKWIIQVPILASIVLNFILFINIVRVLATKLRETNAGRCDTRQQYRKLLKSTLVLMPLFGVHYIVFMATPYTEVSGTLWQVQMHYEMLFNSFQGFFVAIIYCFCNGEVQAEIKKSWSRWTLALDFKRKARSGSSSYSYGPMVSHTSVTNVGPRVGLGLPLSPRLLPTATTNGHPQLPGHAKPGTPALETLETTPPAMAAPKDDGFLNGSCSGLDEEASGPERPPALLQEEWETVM
Test: In vitro cAMP signal activity in HKRK-B7 cells (LLC-PK1 cells overexpressing the human PTH1 receptor)
Type: cell-based
Details: 0.1 µM

Row | SMILES | cAMP production activity (%)
1 | Cc1cc(S(=O)(=O)NCC(F)(F)C(F)(F)C(F)(F)F)ccc1CCS(=O)(=O)N1CCC2(CC1)N=C(c1cccc(C(F)(F)F)c1)NC2=O [Compound 667, N-(2,2,3,3,4,4,4-Heptafluoro-butyl)-3-methyl-4-{2-[4-oxo-2-(3-trifluoromethyl-phenyl)-1,3,8-triaza-spiro[4.5]dec-1-ene-8-sulfonyl]-ethyl}-benzenesulfonamide] | 40

Same assay, conditions: HKRK-B7 cells; compound at 1×10^−3 M; cAMP produced as percentage of that produced by hPTH(1-34) at 100 nM

Row | SMILES | cAMP production activity (%)
2 | Cc1cc(C(=O)N2C[C@@H](C)O[C@@H](C)C2)ccc1CCS(=O)(=O)N1CCC2(CC1)N=C(c1cccc(OC(F)(F)F)c1)NC2=O [Compound 666, 8-{2-[4-((2R,6S)-2,6-dimethyl-morpholine-4-carbonyl)-2-methyl-phenyl]-ethanesulfonyl}-2-(3-trifluoromethoxy-phenyl)-1,3,8-triaza-spiro[4.5]dec-1-en-4-one] | 51
3 | COc1cccc(CCS(=O)(=O)N2CCC3(CC2)N=C([C@H]2CC[C@H](C)CC2)NC3=O)c1C [Compound 668, 8-[2-(3-Methoxy-2-methyl-phenyl)-ethanesulfonyl]-2-(4-methyl-cyclohexyl)-1,3,8-triaza-spiro[4.5]dec-1-en-4-one] | 40
4 | COc1c(N(C)C(=O)OC(C)(C)C)cc(C)c(CCS(=O)(=O)N2CCC3(CC2)N=C([C@H]2CC[C@H](C)CC2)NC3=O)c1C [Compound 669, (2-methoxy-3,5-dimethyl-4-{2-[2-(4-methyl-cyclohexyl)-4-oxo-1,3,8-triaza-spiro[4.5]dec-1-ene-8-sulfonyl]-ethyl}-phenyl)-methyl-carbamic acid tert-butyl ester] | 58
5 | CCCCCCCCCC1=NC2(CCN(S(=O)(=O)CCc3ccc(N4C(=O)CC[C@H]4CO)cc3C)CC2)C(=O)N1 [Compound 670, 8-{2-[4-((S)-2-Hydroxymethyl-5-oxo-pyrrolidin-1-yl)-2-methyl-phenyl]-ethanesulfonyl}-2-nonyl-1,3,8-triaza-spiro[4.5]dec-1-en-4-one] | 123
6 | Cc1cc2[nH]c(=O)oc2c(C)c1CCS(=O)(=O)N1CCC2(CC1)N=C([C@H]1CC[C@H](C)CC1)NC2=O [Compound 671, 8-[2-(5,7-Dimethyl-2-oxo-2,3-dihydro-benzoxazol-6-yl)-ethanesulfonyl]-2-(4-methyl-cyclohexyl)-1,3,8-triaza-spiro[4.5]dec-1-en-4-one] | 81
7 | COC(=O)NCCc1ccc(CCS(=O)(=O)N2CCC3(CC2)N=C(C2CCCCC2)NC3=O)cc1 [Compound 672, (2-{4-[2-(2-Cyclohexyl-4-oxo-1,3,8-triaza-spiro[4.5]dec-1-ene-8-sulfonyl)-ethyl]-phenyl}-ethyl)-carbamic acid methyl ester] | 47
8 | Cc1cc(CN(C)C(=O)OC(C)(C)C)ccc1CCS(=O)(=O)N1CCC2(CC1)N=C(C1CCCCC1)NC2=O [Compound 673, {4-[2-(2-cyclohexyl-4-oxo-1,3,8-triaza-spiro[4.5]dec-1-ene-8-sulfonyl)-ethyl]-3-methyl-benzyl}-methyl-carbamic acid tert-butyl ester] | 27
9 | Cc1cc(N2CCN(CCO)C2=O)ccc1CCS(=O)(=O)N1CCC2(CC1)N=C(c1cccc(C(F)(F)F)c1)NC2=O [Compound 674, 8-(2-{4-[3-(2-Hydroxy-ethyl)-2-oxo-imidazolidin-1-yl]-2-methyl-phenyl}-ethanesulfonyl)-2-(3-trifluoromethyl-phenyl)-1,3,8-triaza-spiro[4.5]dec-1-en-4-one] | 68
10 | Cc1cc(S(=O)(=O)NCC(N)=O)ccc1CCS(=O)(=O)N1CCC2(CC1)N=C(c1cccc(OC(F)(F)F)c1)NC2=O [Compound 675, 2-(3-Methyl-4-{2-[4-oxo-2-(3-trifluoromethoxy-phenyl)-1,3,8-triaza-spiro[4.5]dec-1-ene-8-sulfonyl]-ethyl}-benzenesulfonylamino)-acetamide] | 68
